# Columns and labels:
# [1] = tested on: WT I17T MAPT mini-gene (exon 10 splicing); experiment: 4R/3R MAPT mRNA by RT-qPCR, HeLa cells transfected with WT I17T mini-gene; assay type: cell-based; settings: ASO 0.5 μM
# Method: (§1) RNA Isolation and Real-Time Quantitative PCR (RT-qPCR). HeLa cells were treated as described in the Luciferase Reporter assay to Study Exon 10 Alternative Splicing. LAN5 cells were seeded in 12-well plates at 0.2×10^6 cells per well, treated with compound or ASO, and incubated for 48 h. Compound stocks prepared in DMSO and ASO stocks prepared in water were diluted in growth medium and added to cells. Total RNA was extracted from cells and analyzed via RT-qPCR to determine levels of 3R and 4R tau mRNA. In brief, the cells were washed with 1×DPBS and then lysed in the well using 300 μL of Lysis Buffer provided in a Quick-RNA MiniPrep kit (Zymo Research), which was used to extract total RNA per the manufacturer's protocol including the on-column DNase I digestion. The concentration of total RNA was measured by NanoDrop 2000 (Thermo Fisher Scientific). Only samples with OD260/OD280>1.8 were carried forward for analysis. Reverse transcription (RT) was carried out on 200 ng of total RNA using a qScript cDNA synthesis kit (QuantaBio) in a total volume of 10 μL according to the manufacturer's protocol. An Applied Biosystems QS5 384-well PCR system was used to complete qPCR reactions with Power SYBR Green Master Mix (Life Technologies), 600 nM each primer (Table S3), 20 ng of cDNA (1 μL of the RT reaction), in a total volume of 33 μL. Technical triplicates (10 μL each) were aliquoted into 384-well qPCR plates (Applied biosystems, 4483285). Subsequent qPCR analysis was performed using an Applied Biosystems QS5 384-well PCR system (software v.1.3.0). 4R/3R ratio were analyzed using ΔΔCt method using Equation 2: […]
# (§2) where ΔCt 4R or ΔCt 3R is the difference between the Ct values for the 4R or 3R MAPT mRNA and a housekeeping gene (18S rRNA) in total RNA from cells.
# [2] = tested on: DDPAC I17T MAPT mini-gene (exon 10 splicing); experiment: 4R/3R MAPT mRNA by RT-qPCR, HeLa cells transfected with DDPAC I17T mini-gene; assay type: cell-based; settings: ASO 0.5 μM
# Method: as §1, §2
# [3] = tested on: MAPT exon 10 splicing in LAN5 cells; experiment: 4R/3R endogenous MAPT mRNA by RT-qPCR in LAN5 neuroblastoma cells; assay type: cell-based
# Method: as §1, §2
# [4] = tested on: MAPT exon 10 splicing in primary neurons from htau mice; experiment: 4R/3R MAPT mRNA by RT-qPCR in primary neurons from htau mice; assay type: cell-based, human MAPT in htau transgenic mouse neurons; settings: 48 h
# Method: as §1
# Isolation and Treatment of Primary Neurons from Humanized tau (hTau) Transgenic Mice. All animal studies were completed as approved by the Scripps Florida Institutional Animal Care and Use Committee. […]
# [5] = tested on: LAN5 transcriptome; experiment: RNA-seq transcriptome-wide selectivity in LAN5 cells; assay type: cell-based, human
# Method: RNA-Seq. LAN5 cells in 12-well plate (~60% confluency) were treated with 2 (1.5 μM), 0.1% (v/v) DMSO (vehicle), 4R-to-3R tau ASO (0.5 μM), or scrambled ASO (0.5 μM) for 48 h. Total RNA was extracted using an RNeasy Mini Kit (Qiagen) per the manufacturer's protocol. Next, rRNA was depleted using NEBNext rRNA depletion modules (E6310L, New England Biosciences) and prepared with NEBNext Ultra II Dir RNA Lib Prep Kit (E7760S, New England Biosciences) according to the manufacturer's protocol. The prepared libraries were processed with NextSeq 500/550 High Output Kit v2.5 (Illumina, 20024907) per the manufacturer's protocol and then sequenced on a NextSeq 500. After sequencing, the BCL files were converted to FASTQ files using basemount/0.12.8.1516 and bcl2fastq/2.17.1.14.^33 The sequencing depth was over 82 million for each sample.
# FastQC^34 and RSeQC^35 were used to determine the quality of reads and any overrepresentation of sequences. HISAT2^36 was used to map the reads to the reference human genome (hg19), and the output SAM files were converted to BAM files and sorted by index. Kallisto^37 and NCBI reference sequences (RefSeq)^38 were used for gene quantification to calculate transcripts per million (TPM). Differentially expressed genes were detected with Sleuth^39 and determined by a multiple test corrected p-value<0.05. Splicing event PSI values were quantitated using MISO.^40
# [6] = Plasma protein binding by equilibrium dialysis; assay type: in vitro ADME; settings: 37° C., 6 h (2 at 5 μM), read-out: free fraction in plasma
# Method: Plasma and brain binding. Plasma protein binding was determined by equilibrium dialysis using a Thermo Scientific™ RED Device per the manufacturer's protocol. Each sample was prepared by addition of 2 into 100 μL plasma with final concentration of 5 μM (0.1% (v/v) DMSO). 1×PBS was used as dialysis buffer and was added into the buffer chamber. The plate was incubated with shaking at 37° C. for 6 h. The concentration of 2 in the plasma and buffer compartments was determined as described in Quantitation of 2 in Mouse Plasma and Brain. The free fraction was calculated as [buffer]/[plasma].
Compound,effect on 4R/3R ratio [1],effect on 4R/3R ratio [2],"reduction of 4R/3R MAPT ratio ([3]; ASO 0.5 μM, LAN5, 48 h)","PSI10 in all cell lines ([3]; ASO, all cell lines of FIGS. 12A-12C (LAN5, HeLa mini-genes, htau primary neurons))",4R/3R ratio and PSI10 [4],expression of MAPT gene ([5]; 2 at 1.5 μM or ASO 0.5 μM),alternative splicing of MAPT exons (exon 10) ([5]; 2 at 1.5 μM or tau ASO 0.5 μM),"genes unchanged, percent ([5]; tau ASO 0.5 μM, 48 h) [%]",fraction unbound at 6 h [6]
"tau ASO: Vivo-Morpholino antisense oligonucleotide targeting the MAPT exon-10-intron junction hairpin, 5′-TGAAGGTACTCACACTGCCGC-3′ (SEQ ID NO: 1) (all phosphorodiamidate morpholino (PMO); Vivo-Morpholino: morpholino with attached delivery moiety, further chemistry not fully specified) [reference compound]",altered the 4R/3R ratio,altered the 4R/3R ratio,~ 82%,also downregulated in all cell lines,dose dependent reduction,Neither 2 nor the ASO altered the expression of MAPT gene,only one significantly reduced,99.97,
"NC(=O)N1c2ccccc2C=Cc2ccccc21 [Carbamazepine, reference compound]",,,,,,,,,0.377 ± 0.042

# Source: US20260308158A1, “TARGETING RNAS ASSOCIATED WITH TAUOPATHIES WITH SMALL MOLECULES” (University of Florida Research Foundation, Incorporated, priority 2023, published 2026)
